From patent publication US7582282B2, “Methods for optimizing clinical responsiveness to methotrexate therapy using metabolite profiling and pharmacogenetics” (Prometheus Laboratories Inc., priority 2003, dated 2009)

Legend:
[1] = system: patients with rheumatoid arthritis; experiment: Cross-sectional clinical study of methotrexate effects in patients with rheumatoid arthritis (joint counts, VAS, mHAQ; regression analyses); type: in vivo, human; parameters: key to Physician's assessment of disease activity visual analog score (VAS), mean / Physician assessment of disease activity VAS: 10 cm visual analog scale; key to Modified health assessment questionnaire (mHAQ) score, mean / Modified Health assessment questionnaire: mean of 8 items, each 0 = without any difficulty to 3 = unable to do
Method: In this cross-sectional study, eligibility was limited to patients of at least 18 years of age who met the revised criteria of the American Rheumatism Association for Rheumatoid Arthritis and had received low dose methotrexate therapy for at least three months. Some patients were on additional medications for rheumatoid arthritis, including low dose corticosteroids (<10 mg day), and folic acid supplementation (1 mg/day). The Institutional Review Board approved the study, and patient consent was obtained.
Patient characteristics were collected at the time of the enrollment in the clinical study. Clinical assessment included a tender joint count, a swollen joint count, a Physician's Assessment of Disease Activity (using a 10 cm visual analog scale (VAS)), and a Patient's Assessment of Physical Function using the modified-Health Assessment Questionnaire (m-HAQ). The mHAQ is the average score obtained on eight items addressed to the patient to assess loss of typical lifestyle activities. Scoring of items within each is from 0 (without any difficulty) to 3 (unable to do). The eight items are as follows: 1: dress yourself, 2: get in and out of bed, 3: lift a full glass to your mouth, 4: walk, 5: wash and dry entire body, 6: bend down and pick up clothing, 7: turn faucets on and off, and 8: get in and out of a car. In addition to these standards, the American College of Rheumatology measures, and a Physician's Assessment of Response to methotrexate scored on a 10 cm visual analogue scale (VAS) were also used. In this visual analogue scale, “0” is defined as a perfect response, while “10” is defined as no response. Based on these definitions, a physician's assessment of response to MTX below group median corresponds to a perception of response above group median. Clinical data were collected on case report forms at the time of the clinical visit, and the physician and each patient were blinded to all laboratory parameters throughout the entire study. Furthermore, using the VAS for the physician's assessment of disease activity and the physician's assessment of response to methotrexate, the highest 25th percentiles for disease activity or response to methotrexate were calculated. Chi-square analysis was applied, and odds ratios (OR) were calculated.
Genotyping was performed as follows: Whole blood (EDTA) was drawn the day of the clinical visit; genomic DNA was extracted using a Generation Purification Capture Column (Gentra Systems, Inc; Minneapolis, Minn.). The RFC-1 G80A polymorphism, which results in a […] substitution at codon 27 of RFC-1, was detected using the PCR RFLP method described in Chango et al., supra, 2000. The ATIC C347G polymorphism, which results in a threonine to serine substitution at position 116 of ATIC, was determined with a real time TaqMan allelic discrimination assay performed using fluorogenic 3′-minor groove binding probes. The forward primer sequence was 5′-[…]-3′ (SEQ ID NO:3), and the reverse primer sequence was 5′-[…]-3′ (SEQ ID NO:4). Allelic discrimination was performed using the wild-type fluorescent probe 5′-FAM-[…]-MGB 3′ (SEQ ID NO:5) and the mutant fluorescent probe 5′-VIC-[…]-MGB 3′ (SEQ ID NO:6). Final reaction conditions were as follows: 900 nM of each primer, 200 nM of each probe, 5 ng genomic DNA, and a 1×TaqMan master mix (Applied Biosystems; Foster City, Calif.). PCR reactions were incubated for one 2-minute cycle at 50° C., a 10-minute cycle at 95° C., and 40 cycles of 95° C. for 15 seconds, 58° C. for 15 seconds, and finally 60° C. for 45 seconds. Statistical analyses were performed using Statistica (StatSoft Inc., Tulsa, Okla.) essentially as follows. […]

[2] = human, in vivo
Method: Red blood cell methotrexate polyglutamate concentrations were measured as described further below using HPLC-fluorometry with post-column photo-oxidation technique. The technologist in charge of quantification of red blood cell methotrexate polyglutamates was blinded to patients' clinical information.
Mobile phase B consisted of acetonitrile.
Red blood cell long-chain MTXPG concentrations were measured as described previously using an HPLC-fluorometry procedure with post-column photo-oxidation technique (Dervieux, Clin Chem. (2003)). The technologist performing the quantification of RBC MTXPGs (up to the penta-order of glutamation) was blinded to patient's information.
The quantification limit of the analytical method is 5 nmol/L and the detection limit is 2 nmol/L packed RBC (for all MTXPG species) (Dervieux, Clin Chem. (2003)).

[3] = Red blood cell MTXPG concentrations in 14 polyarthritis patients on low dose weekly methotrexate (HPLC-fluorometry)
Method: The liquid chromatograph was an Agilent 1100 HPLC chemstation system composed of a quaternary pump, a system controller, an autoinjector, a sample cooler kept at 4° C., and a fluorometer. […] Methotrexate polyglutamates were detected with post-column derivatization using a photochemical reactor unit (Aura Industries, New York, N.Y.) equipped with an elongated 254 nm low pressure mercury ultraviolet lamp and containing a 1/16″ outer diameter TEFLON™ tubing (internal diameter 0.25 mm) assembled as a knitted coil and connected on-line between the analytical column and fluorometer. […] Methotrexate polyglutamate photolytic products were measured at an excitation wavelength of 274 nm and an emission wavelength of 464 nm, unless otherwise indicated. The retention times described herein were measured from time of injection to time of detection at the post-reactor unit fluorometer.
HPLC separation was performed on a 25 cm×4.6 mm X Terra MS C18 column (Waters, Milford, Mass.), 5 μm particle size, protected by a guard column. […] Methotrexate polyglutamate photolytic products were analyzed at an excitation wavelength of 274 nm and an emission wavelength of 464 nm. […]
Results were expressed as nmol/L packed red blood cells, and patient results were expressed as an average plus or minus the standard error of the mean (±SEM). […]

[4] = multivariate regression with RFC-1, ATIC, TSER genotypes, adjusted for corticosteroids and folic acid
[5] = 108 patients on methotrexate, mean ± SEM
[6] = 108 patients on methotrexate, median (range)
[7] = multivariate linear regression adjusted for corticosteroids and folic acid

## CN(Cc1cnc2nc(N)nc(N)c2n1)c1ccc(C(=O)N[C@@H](CCC(=O)N[C@@H](CCC(=O)N[C@@H](CCC(=O)O)C(=O)O)C(=O)O)C(=O)O)cc1 [MTXPG3, 4-amino-10-methylpteroyltri-glutamic acid]
[1]; FIG. 4A, model with MTXPG3 only, estimate ± standard error
  Logistic regression estimate for MTXPG3: probability of total number of tender and swollen joints below group median: 0.022±0.008
[1]; FIG. 4B, model with MTXPG3 only
  Logistic regression estimate for MTXPG3: probability of physician assessment of Disease activity VAS below group median: 0.024±0.009
[1]; FIG. 4C, model with MTXPG3 only
  Logistic regression estimate for MTXPG3: probability of physician assessment of response to methotrexate VAS below group median: 0.034±0.01
[1]; FIG. 4D, model with MTXPG3 only
  Logistic regression estimate for MTXPG3: probability of mHAQ below group median: 0.014±0.008
[1]; FIG. 5A, model with MTXPG3 and RFC-1 G80A genotype
  Logistic regression estimate for MTXPG3: probability of total number of tender and swollen joints below group median: 0.022±0.009
[1]; FIG. 5B, model with MTXPG3 and RFC-1 G80A genotype
  Logistic regression estimate for MTXPG3: probability of physician assessment of Disease activity VAS below group median: 0.024±0.009
[1]; FIG. 5C, model with MTXPG3 and RFC-1 G80A genotype
  Logistic regression estimate for MTXPG3: probability of physician assessment of response to methotrexate VAS below group median: 0.033±0.010
[1]; FIG. 5D, model with MTXPG3 and RFC-1 G80A genotype
  Logistic regression estimate for MTXPG3: probability of mHAQ below group median: 0.015±0.008
[1]; FIG. 6A, model with MTXPG3 and ATIC C347G genotype
  Logistic regression estimate for MTXPG3: probability of total number of tender and swollen joints below group median: 0.024±0.009
[1]; FIG. 6B, model with MTXPG3 and ATIC C347G genotype
  Logistic regression estimate for MTXPG3: probability of physician assessment of Disease activity VAS below group median: 0.025±0.009
[1]; FIG. 6C, model with MTXPG3 and ATIC C347G genotype
  Logistic regression estimate for MTXPG3: probability of physician assessment of response to methotrexate VAS below group median: 0.038±0.010
[1]; FIG. 6D, model with MTXPG3 and ATIC C347G genotype
  Logistic regression estimate for MTXPG3: probability of mHAQ below group median: 0.013±0.008
[1]; FIG. 7A, model with MTXPG3 and PGENi (RFC-1, ATIC)
  Logistic regression estimate for MTXPG3: probability of total number of tender and swollen joints below group median: 0.023±0.009
[1]; FIG. 7B, model with MTXPG3 and PGENi (RFC-1, ATIC)
  Logistic regression estimate for MTXPG3: probability of physician assessment of Disease activity VAS below group median: 0.025±0.009
[1]; FIG. 7C, model with MTXPG3 and PGENi (RFC-1, ATIC)
  Logistic regression estimate for MTXPG3: probability of physician assessment of response to methotrexate VAS below group median: 0.036±0.010
[1]; FIG. 7D, model with MTXPG3 and PGENi (RFC-1, ATIC)
  Logistic regression estimate for MTXPG3: probability of mHAQ below group median: 0.014±0.009
[1]; FIG. 12B
  MTXPG3 estimate, logistic regression: probability of physician's assessment of patient's response to MTX VAS≦2 cm: 0.035±0.01
[1]; [4]
  Estimate ± SEM of RBC MTXPG3 (nmol/L) for Modified Health assessment questionnaire: −0.002 ± 0.002
  Estimate ± SEM of RBC MTXPG3 (nmol/L) for Number of Swollen joints: −0.035 ± 0.019
  Estimate ± SEM of RBC MTXPG3 (nmol/L) for Number of Tender joints: −0.047 ± 0.23
  Estimate ± SEM of RBC MTXPG3 (nmol/L) for Patient's Global assessment of disease activity VAS: −0.004 ± 0.009
  Estimate ± SEM of RBC MTXPG3 (nmol/L) for Physician's Global assessment of disease activity VAS: −0.025 ± 0.008
  Estimate ± SEM of RBC MTXPG3 (nmol/L) for Physician's assessment of Patient's response to MTX VAS: −0.026 ± 0.007
[1]; patients with RBC MTXPG3 levels above 60 nmol/L
  Fold more likely to have clinical responsiveness to the chemotherapy above average: 12.7 fold
[2]
  Median RBC long-chain MTXPGs concentration (MTXPG3): 40 nmol/L
  RBC long-chain MTXPGs concentration (MTXPG3), range: <5 to 131 nmol/L
[3]; 14 patients, RBC
  Average share of total methotrexate polyglutamates: 55%

## CN(Cc1cnc2nc(N)nc(N)c2n1)c1ccc(C(=O)N[C@@H](CCC(=O)O)C(=O)O)cc1 [Methotrexate, 4-amino-10-methylpteroylglutamic acid]
[1]; [5]
  Modified Health assessment questionnaire: 0.55 ± 0.05
  Number of Swollen joints (maximum 22): 4.0 ± 0.5
  Number of Tender joints (maximum 22): 5.0 ± 0.6
  Patient assessment of disease activity VAS: 4.1 ± 0.2
  Physician assessment of disease activity VAS: 3.5 ± 0.2
[1]; [6]
  Modified Health Assessment Questionnaire (mHAQ score): 0.375 (0-2)
  Number of swollen and tender joints (total number): 5.5 (0-44)
  Physician assessment of disease activity (10 cm VAS score): 2.9 (0.1-8.4)
[1]; 108 patients, mean ± SEM
  Physician assessment of response to Methotrexate VAS: 2.7 ± 0.2
[1]; 108 patients, median (range), 0 perfect response, 10 no response
  Physician assessment of response to methotrexate (10 cm VAS score): 2.1 (0.1-8.3)
[1]; PGENi=0 (n=58 patients)
  Mean number of swollen joints: 5.5±0.8
  Modified health assessment questionnaire (mHAQ) score, mean: 0.68±0.07
  Physician's assessment of disease activity visual analog score (VAS), mean: 4.1±0.3
  Physician's assessment of response to MTX, mean: 3.0±0.2
[1]; PGENi=0 (n=58 patients), PGENi from RFC-1, ATIC, TS homozygosity
  Mean number of tender joints: 6.4±0.9
[1]; PGENi=1 to 3 (n=50 patients)
  Mean number of swollen joints: 2.3±0.4
  Mean number of tender joints: 3.3±0.9
  Modified health assessment questionnaire (mHAQ) score, mean: 0.39±0.06
  Physician's assessment of disease activity visual analog score (VAS), mean: 2.6±0.3
  Physician's assessment of response to MTX, mean: 2.3±0.3
[1]; [7]
  Estimate ± SEM of methotrexate dose (mg/week) for Modified Health assessment questionnaire: −0.017 ± 0.009; p = 0.09
  Estimate ± SEM of methotrexate dose (mg/week) for Number of Tender joints: −0.17 ± 0.12; p = 0.15
  Estimate ± SEM of methotrexate dose (mg/week) for Physician assessment of disease activity VAS: −0.088 ± 0.044; p = 0.06
[1]; patients with a PGENi between 1-3 (sum of homozygous variant genotypes)
  Fold more likely to have a good response to methotrexate therapy: 3.7 fold
[1]; pharmacogenetic index above 2 (index 0 to 5, variant alleles counted)
  Fold more likely to have Physician's Assessment of Patient's Response to Methotrexate VAS≦2 cm (good response): 4.7 fold
[3]; one patient on 17.5 mg weekly methotrexate for at least 3 months
  RBC concentration in a patient sample: 27 nmol/L
